What all share (assay): fluorogenic peptidase assay
Common to all, as to assay type: biochemical

In one assay the target is T1, bsClpYQ (Bacillus subtilis, UniProt P39070+P39778).
T1 sequence (P39070 2-181): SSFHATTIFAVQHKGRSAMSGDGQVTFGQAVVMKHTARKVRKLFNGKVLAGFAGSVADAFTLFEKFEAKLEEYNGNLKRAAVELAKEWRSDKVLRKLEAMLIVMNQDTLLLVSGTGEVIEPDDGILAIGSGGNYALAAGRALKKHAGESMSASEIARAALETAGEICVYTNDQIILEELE
T1 sequence (P39778 1-467): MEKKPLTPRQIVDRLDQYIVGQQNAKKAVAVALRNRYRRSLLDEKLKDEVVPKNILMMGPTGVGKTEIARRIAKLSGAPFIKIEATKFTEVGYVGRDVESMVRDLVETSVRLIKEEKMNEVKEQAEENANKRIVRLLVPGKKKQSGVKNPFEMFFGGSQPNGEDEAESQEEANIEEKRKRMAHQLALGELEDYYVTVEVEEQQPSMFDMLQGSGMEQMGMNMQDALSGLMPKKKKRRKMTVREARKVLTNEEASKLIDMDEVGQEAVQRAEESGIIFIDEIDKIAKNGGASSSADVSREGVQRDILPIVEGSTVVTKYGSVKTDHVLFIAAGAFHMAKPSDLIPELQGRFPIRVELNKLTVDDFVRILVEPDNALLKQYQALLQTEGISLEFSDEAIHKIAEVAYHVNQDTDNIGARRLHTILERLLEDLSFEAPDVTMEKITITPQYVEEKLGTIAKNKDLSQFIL
The settings on record: substrate Cbz-GGL-AMC, ATP present; competitive.

Assay [1] deals with T2, ecClpP (Escherichia coli, UniProt P0A6G7).
T2 sequence (P0A6G7 15-207): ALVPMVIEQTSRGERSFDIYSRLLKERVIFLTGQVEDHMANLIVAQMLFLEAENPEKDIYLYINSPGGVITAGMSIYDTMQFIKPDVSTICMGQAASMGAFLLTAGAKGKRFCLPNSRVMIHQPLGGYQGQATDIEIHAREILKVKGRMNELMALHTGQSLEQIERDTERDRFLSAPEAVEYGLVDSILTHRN
Assay [2] addresses T3, ecClpXP (Escherichia coli, UniProt P0A6G7+P0A6H1). Conditions: substrate Suc-LY-AMC; competitive.
Assay [3] has as its target T2, ecClpP. The source holds these as a separate data set.
Assay [4] has as its target T3, ecClpXP. Conditions: 0.1 mM Suc-LY-AMC; competitive.

SMILES strings stand for the structures.

The values that follow come from publication doi:10.1101/685669v2 (biorxiv, 2020).

T3 sequence (P0A6G7 15-207): as above
T3 sequence (P0A6H1 2-424): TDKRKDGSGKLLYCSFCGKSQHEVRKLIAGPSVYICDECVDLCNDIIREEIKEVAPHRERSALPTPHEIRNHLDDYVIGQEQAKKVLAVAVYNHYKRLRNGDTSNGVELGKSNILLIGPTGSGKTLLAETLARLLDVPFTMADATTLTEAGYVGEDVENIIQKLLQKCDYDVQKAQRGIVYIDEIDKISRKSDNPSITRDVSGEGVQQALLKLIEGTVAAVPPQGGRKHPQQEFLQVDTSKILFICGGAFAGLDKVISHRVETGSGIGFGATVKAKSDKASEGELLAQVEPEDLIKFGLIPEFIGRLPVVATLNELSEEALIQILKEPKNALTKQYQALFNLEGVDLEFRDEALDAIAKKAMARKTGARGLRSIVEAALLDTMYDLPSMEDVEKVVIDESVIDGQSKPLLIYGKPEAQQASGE

The term Ki denotes a measure of affinity in units of concentration, obtained from inhibition or displacement. Higher therefore signals lower affinity. The term IC50 denotes the concentration that gives 50% inhibition. High values mean weaker potency in that assay, low ones greater potency in that assay. On to `CCCCCCc1c(O)c(Cl)cc2c1OC1(C2=O)C(Cl)=C(Cl)C(=O)N1C` (racemic) [compound 1, 5-chloro-armeniaspirol A], for which the Ki on bsClpYQ was 3.2 µM; on ecClpP [1] it was 58.8 µM; on ecClpXP [2], 36.7 µM. Also, the IC50 against ecClpP [3] was 61 ± 1 µM; at ecClpXP [4], 48.6 ± 1 µM.
